In ChEMBL document CHEMBL5579819, “Dual-target inhibitors of colchicine binding site for cancer treatment” (Eur J Med Chem, 2024):

Assays:
MCF7 [1] = test: Cytotoxicity against human MCF7 cells assessed as reduction in cell growth incubated for 72 hrs by MTT assay; assay type: functional, cell-based; settings: MCF7, 72 h
HepG2 [2] = test: Cytotoxicity against human HepG2 cells assessed as reduction in cell viability incubated for 24 hrs by MTT assay; assay type: functional, cell-based; settings: HepG2, 24 h
MCF7 [3] = test: Cytotoxicity against human MCF7 cells assessed as reduction in cell viability incubated for 24 hrs by MTT assay; assay type: functional, cell-based; settings: MCF7, 24 h
HCT-116 = test: Cytotoxicity against human HCT-116 cells assessed as reduction in cell viability incubated fro 24 hrs by MTT assay; assay type: functional, cell-based; settings: HCT-116, 24 h
[4] = target: Triosephosphate isomerase (Homo sapiens, UniProt P60174); test: Inhibition of TPI (unknown origin)
Triosephosphate isomerase, sequence (P60174 whole entry): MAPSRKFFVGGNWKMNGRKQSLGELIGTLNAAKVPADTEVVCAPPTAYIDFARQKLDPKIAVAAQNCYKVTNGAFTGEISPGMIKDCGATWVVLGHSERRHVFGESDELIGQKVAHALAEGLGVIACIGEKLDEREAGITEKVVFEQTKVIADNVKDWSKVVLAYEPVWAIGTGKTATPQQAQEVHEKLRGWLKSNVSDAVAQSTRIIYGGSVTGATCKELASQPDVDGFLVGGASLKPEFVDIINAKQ

[5] = Metabolic stability in BALB/c mouse liver microsome assessed as half life incubated for 1 hrs by LC-MS/MS analysis; assay type: ADME; settings: liver microsomes
[6] = Cmax in BALB/c mouse at 50 mg/kg, po measured for 24 hrs by LC-MS/MS analysis; assay type: ADME, organism-based; settings: in vivo
[7] = AUC (0 to t) in BALB/c mouse at 50 mg/kg, po measured for 24 hrs by LC-MS/MS analysis; assay type: ADME, organism-based; settings: in vivo
COLO 205 = test: Cytotoxicity against human COLO 205 cells assessed as reduction in cell growth incubated for 24 hrs by SRB assay; assay type: functional, cell-based; settings: COLO 205, 24 h
Tubulin = test: Inhibition of tubulin polymerization (unknown origin) by fluorescence based assay; assay type: protein-complex assay, Homo sapiens
SiHa = test: Cytotoxicity against human SiHa cells assessed as reduction in cell viability measured for 48 hrs by MTT assay; assay type: functional, cell-based
HeLa = test: Cytotoxicity against human HeLa cells assessed as reduction in cell viability measured for 48 hrs by MTT assay; assay type: functional, cell-based
HepG2 [8] = test: Cytotoxicity against human HepG2 cells assessed as reduction in cell growth incubated for 24 hrs by MTT assay; assay type: functional, cell-based; settings: HepG2, 24 h
A549 [9] = test: Cytotoxicity against human A549 cells assessed as reduction in cell growth incubated for 24 hrs by MTT assay; assay type: functional, cell-based; settings: A549, 24 h
MCF7 [10] = test: Cytotoxicity against human MCF7 cells assessed as cell growth inhibition incubated for 24 hrs by MTT assay; assay type: functional, cell-based; settings: MCF7, 24 h
[11] = Selectivity index, ratio of CC50 for cytotoxicity against African green monkey Vero cells to IC50 for cytotoxicity against human HepG2 cells; assay type: toxicity, cell-based; settings: Vero cells (CC50) and HepG2 cells (IC50)
MCF7 [12] = test: Cytotoxicity against human MCF7 cells assessed as reduction in cell growth incubated for 24 hrs by MTT assay; settings: MCF7, 24 h
MCF7 [13] = test: Cytotoxicity against human MCF7 cells assessed as reduction in cell viability by MTT assay
[14] = target: Vascular endothelial growth factor receptor 2 (Homo sapiens, UniProt P35968); test: Inhibition of VEGFR2 (unknown origin)
Vascular endothelial growth factor receptor 2, sequence (P35968 whole entry): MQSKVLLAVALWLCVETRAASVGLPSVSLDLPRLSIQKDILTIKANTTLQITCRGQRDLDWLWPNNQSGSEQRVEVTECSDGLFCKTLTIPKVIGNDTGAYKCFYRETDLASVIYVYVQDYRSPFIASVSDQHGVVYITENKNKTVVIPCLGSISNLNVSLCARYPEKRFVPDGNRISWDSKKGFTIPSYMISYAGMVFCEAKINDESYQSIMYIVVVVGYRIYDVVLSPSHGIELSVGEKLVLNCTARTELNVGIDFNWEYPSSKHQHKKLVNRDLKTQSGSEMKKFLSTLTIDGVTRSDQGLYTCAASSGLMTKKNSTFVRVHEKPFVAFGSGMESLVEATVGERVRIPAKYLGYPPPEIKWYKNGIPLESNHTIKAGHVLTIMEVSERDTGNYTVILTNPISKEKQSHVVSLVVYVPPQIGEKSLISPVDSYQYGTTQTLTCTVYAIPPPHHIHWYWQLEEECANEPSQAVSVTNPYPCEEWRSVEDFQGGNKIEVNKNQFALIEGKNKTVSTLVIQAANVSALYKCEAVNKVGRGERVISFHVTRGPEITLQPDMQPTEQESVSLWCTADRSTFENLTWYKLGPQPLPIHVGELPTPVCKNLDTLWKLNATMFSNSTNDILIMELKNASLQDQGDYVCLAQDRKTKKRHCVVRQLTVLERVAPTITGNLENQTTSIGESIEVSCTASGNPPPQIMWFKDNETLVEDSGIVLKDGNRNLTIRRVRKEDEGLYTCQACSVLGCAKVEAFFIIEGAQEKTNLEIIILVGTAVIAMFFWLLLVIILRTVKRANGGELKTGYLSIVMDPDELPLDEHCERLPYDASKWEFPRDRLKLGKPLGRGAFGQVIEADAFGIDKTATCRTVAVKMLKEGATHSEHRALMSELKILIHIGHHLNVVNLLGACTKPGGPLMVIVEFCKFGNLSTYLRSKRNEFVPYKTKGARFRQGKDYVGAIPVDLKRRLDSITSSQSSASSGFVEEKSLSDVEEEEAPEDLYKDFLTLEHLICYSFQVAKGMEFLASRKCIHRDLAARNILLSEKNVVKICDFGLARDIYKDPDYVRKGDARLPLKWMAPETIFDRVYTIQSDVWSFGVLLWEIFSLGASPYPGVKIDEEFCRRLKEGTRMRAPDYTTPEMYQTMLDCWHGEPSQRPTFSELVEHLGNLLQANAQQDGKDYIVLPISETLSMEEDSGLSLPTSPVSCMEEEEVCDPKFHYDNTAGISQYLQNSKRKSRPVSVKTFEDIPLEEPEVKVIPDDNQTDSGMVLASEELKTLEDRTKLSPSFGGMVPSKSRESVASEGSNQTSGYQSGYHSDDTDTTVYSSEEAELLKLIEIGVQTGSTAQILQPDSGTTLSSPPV

[15] = target: Platelet-derived growth factor receptor beta (Homo sapiens, UniProt P09619); test: Inhibition of human recombinant PDGFRbeta incubated for 40 mins by Kinase-Glo luminescent kinase assay
Platelet-derived growth factor receptor beta, sequence (P09619 whole entry): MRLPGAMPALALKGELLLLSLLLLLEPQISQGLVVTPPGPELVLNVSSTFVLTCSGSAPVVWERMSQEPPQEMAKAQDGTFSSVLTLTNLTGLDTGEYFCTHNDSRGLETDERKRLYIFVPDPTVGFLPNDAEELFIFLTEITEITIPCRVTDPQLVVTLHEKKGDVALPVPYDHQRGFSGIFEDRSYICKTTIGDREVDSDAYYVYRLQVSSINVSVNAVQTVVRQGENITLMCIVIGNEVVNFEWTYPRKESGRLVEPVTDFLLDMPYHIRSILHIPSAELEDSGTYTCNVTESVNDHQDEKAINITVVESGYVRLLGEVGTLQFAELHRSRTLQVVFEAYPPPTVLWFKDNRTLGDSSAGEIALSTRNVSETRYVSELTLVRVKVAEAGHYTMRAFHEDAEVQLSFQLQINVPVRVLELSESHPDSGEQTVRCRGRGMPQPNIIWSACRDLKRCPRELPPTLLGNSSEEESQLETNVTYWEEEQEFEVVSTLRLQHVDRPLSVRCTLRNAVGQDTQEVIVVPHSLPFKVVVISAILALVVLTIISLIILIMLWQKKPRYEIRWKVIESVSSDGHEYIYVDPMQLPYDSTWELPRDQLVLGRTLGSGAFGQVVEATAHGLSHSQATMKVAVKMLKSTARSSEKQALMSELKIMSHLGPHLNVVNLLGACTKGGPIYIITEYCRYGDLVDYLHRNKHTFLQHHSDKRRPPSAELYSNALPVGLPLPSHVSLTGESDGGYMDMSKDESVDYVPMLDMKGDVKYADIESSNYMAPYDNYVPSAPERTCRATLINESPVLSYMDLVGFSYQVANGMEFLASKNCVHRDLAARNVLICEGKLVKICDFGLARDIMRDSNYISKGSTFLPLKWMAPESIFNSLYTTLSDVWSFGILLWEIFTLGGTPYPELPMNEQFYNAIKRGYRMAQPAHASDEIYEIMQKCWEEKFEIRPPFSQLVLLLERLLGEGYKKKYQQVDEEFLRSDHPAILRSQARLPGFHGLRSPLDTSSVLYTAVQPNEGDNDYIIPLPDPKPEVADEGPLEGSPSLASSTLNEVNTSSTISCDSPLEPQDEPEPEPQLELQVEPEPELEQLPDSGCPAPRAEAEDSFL

Ishikawa = test: Antiproliferative activity against human Ishikawa cells assessed as reduction in cell growth incuabted for 48 hrs by MTT assay; assay type: functional, cell-based
A549 [16] = test: Cytotoxicity against human A549 cells; assay type: functional, cell-based
Histone deacetylase 2 = Histone deacetylase 2 (Homo sapiens, UniProt Q92769); test: Inhibition of HDAC2 (unknown origin)
Histone deacetylase 2, sequence (Q92769 whole entry): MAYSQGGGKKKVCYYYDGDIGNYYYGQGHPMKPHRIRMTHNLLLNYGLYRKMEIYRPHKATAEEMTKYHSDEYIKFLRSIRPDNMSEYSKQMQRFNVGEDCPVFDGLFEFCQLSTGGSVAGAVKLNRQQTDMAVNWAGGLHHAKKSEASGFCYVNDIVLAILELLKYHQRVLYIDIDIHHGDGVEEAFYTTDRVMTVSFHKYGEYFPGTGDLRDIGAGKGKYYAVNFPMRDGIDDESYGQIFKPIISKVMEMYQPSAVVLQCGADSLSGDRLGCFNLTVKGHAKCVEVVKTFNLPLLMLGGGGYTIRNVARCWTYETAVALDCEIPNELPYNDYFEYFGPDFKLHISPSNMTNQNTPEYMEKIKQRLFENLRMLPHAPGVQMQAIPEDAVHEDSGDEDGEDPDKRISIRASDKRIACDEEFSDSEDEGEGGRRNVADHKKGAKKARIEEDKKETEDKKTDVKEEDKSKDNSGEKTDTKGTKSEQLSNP

U-937 = test: Cytotoxicity against human U-937 cells; assay type: functional, cell-based

Nc1ccccc1NC(=O)c1ccc(CN2CCC/C(=C\c3cccc(Cl)c3)C2=O)cc1
IC50 (MCF7 [1]): 2100 nM

CCOCCSc1nc(-c2ccccc2Cl)nn1CCOCC
IC50 (HepG2 [2]): 1300 nM
IC50 (MCF7 [3]): 5160 nM
IC50 (HCT-116): 3360 nM

CCOC(=O)Nc1nc2ccc(-c3cc(Cc4n[nH]c(=O)c5ccccc45)ccc3F)cc2[nH]1
IC50 [4]: 990 nM
half-life [5]: 4.29 h
Cmax [6]: 12200 ng/mL
AUC(0-t) at 24 h [7]: 87600 ng·h/mL

COc1cc(OC)c(/C=C2/C(=O)Nc3cc(Cl)ccc32)c(OC)c1
IC50 (COLO 205): 200 nM
IC50 (Tubulin): 1660 nM

COc1cc2oc(C(=O)c3cc(OC)c(OC)c(OC)c3)cc2cc1/C=C/C(=O)O
IC50 (SiHa): 1100 nM
IC50 (HeLa): 1060 nM

CN(C)c1ccc(/C=N/c2c(N)n(C)c(=O)[nH]c2=O)cc1
IC50 (HepG2 [8]): 1070 nM
IC50 (A549 [9]): 1530 nM
IC50 (MCF7 [10]): 3170 nM
selectivity ratio [11]: 3.74
IC50 [4]: 1900 nM

O=C1Nc2ccccc2/C1=C/c1ccc(OCC(=O)c2ccc(Br)cc2)cc1
IC50 (MCF7 [12]): 14800 nM
IC50 [4]: 7990 nM
IC50 (MCF7 [13]): 14800 nM
IC50 [14]: 5750 nM
IC50 [15]: 3180 nM

O=c1cc(-c2ccc(F)cc2)oc2cc(-c3ccoc3)ccc12
IC50 [4]: 1400 nM
IC50 (Ishikawa): 1000 nM

COc1cc2c(cc1OCc1ccc(C(=O)Nc3ccccc3N)cc1)CC[C@@H]1[C@@H]2CC[C@]2(C)[C@@H](O)CC[C@@H]12
IC50 (A549 [16]): 1780 nM
IC50 (Histone deacetylase 2): 60 nM
IC50 (U-937): 371 nM
